In publication PMC5218480 (PLoS ONE, 2017):

Tested on: MV-4-11 cells
Test: Gene expression microarray analysis (Affymetrix PrimeView) and GSEA
Format: cell-based, human
Set-up: RFU PODN (11730768_x_at) / Fold change /veh PODN (11730768_x_at) / RFU LINC00158 (11744669_a_at) / Fold change /veh LINC00158 (11744669_a_at) / RFU DUSP10 (11751237_a_at) / Fold change /veh DUSP10 (11751237_a_at) / RFU ID3 (11757404_x_at) / Fold change /veh ID3 (11757404_x_at) / RFU PLEKHG5 (11737974_s_at) / Fold change /veh PLEKHG5 (11737974_s_at) / RFU LRRC4B (11730491_at) / Fold change /veh LRRC4B (11730491_at) / RFU GIMAP4 (11747438_a_at) / Fold change /veh GIMAP4 (11747438_a_at) / RFU KRT8 (11758183_x_at) / Fold change /veh KRT8 (11758183_x_at) / RFU CNN1 (11734310_a_at) / Fold change /veh CNN1 (11734310_a_at) / RFU VPS37D (11726825_at) / Fold change /veh VPS37D (11726825_at) / RFU C10orf10 (11716522_x_at) / Fold change /veh C10orf10 (11716522_x_at) / RFU KIR2DL2 /// KIR2DL4 /// KIR2DL5A /// KIR2DL5B /// KIR2DS1 /// KIR2DS2 /// KIR2DS3 /// KIR2DS4 /// KIR3DL3 /// KIR3DL3 /// KIR3DS1 (11738374_at) / Fold change /veh KIR2DL2 /// KIR2DL4 /// KIR2DL5A /// KIR2DL5B /// KIR2DS1 /// KIR2DS2 /// KIR2DS3 /// KIR2DS4 /// KIR3DL3 /// KIR3DL3 /// KIR3DS1 (11738374_at) / RFU C1QL1 (11718748_at) / Fold change /veh C1QL1 (11718748_at) / RFU TMPRSS4 (11747572_a_at) / Fold change /veh TMPRSS4 (11747572_a_at) / RFU HAMP (11756126_x_at) / Fold change /veh HAMP (11756126_x_at) / RFU RNFT2 (11725882_a_at) / Fold change /veh RNFT2 (11725882_a_at) / RFU NR4A2 (11747474_a_at) / Fold change /veh NR4A2 (11747474_a_at) / RFU ABCC12 (11746883_a_at) / Fold change /veh ABCC12 (11746883_a_at) / RFU TMEM136 (11760407_x_at) / Fold change /veh TMEM136 (11760407_x_at) / RFU CLDN22 /// WWC2 (11732394_at) / Fold change /veh CLDN22 /// WWC2 (11732394_at) / RFU HLA-DPB1 (11760878_x_at) / Fold change /veh HLA-DPB1 (11760878_x_at) / RFU SPINT1 (11716480_a_at) / Fold change /veh SPINT1 (11716480_a_at) / RFU GAP43 (11754022_s_at) / Fold change /veh GAP43 (11754022_s_at) / RFU A4GNT (11735810_at) / Fold change /veh A4GNT (11735810_at) / RFU PRB3 (11715151_x_at) / Fold change /veh PRB3 (11715151_x_at) / RFU TUBB4B (11761932_at) / Fold change /veh TUBB4B (11761932_at) / RFU CAPN14 (11732068_a_at) / Fold change /veh CAPN14 (11732068_a_at) / RFU TMCC2 (11721928_a_at) / Fold change /veh TMCC2 (11721928_a_at) / RFU IRGQ (11745062_a_at) / Fold change /veh IRGQ (11745062_a_at) / RFU FAM174B (11720279_a_at) / Fold change /veh FAM174B (11720279_a_at) / RFU TMPRSS4 (11748680_a_at) / Fold change /veh TMPRSS4 (11748680_a_at) / RFU FAM212B (11763350_a_at) / Fold change /veh FAM212B (11763350_a_at) / RFU PLEKHG5 (11743358_a_at) / Fold change /veh PLEKHG5 (11743358_a_at) / RFU ZSCAN30 (11745921_a_at) / Fold change /veh ZSCAN30 (11745921_a_at) / RFU CMKLR1 (11741424_a_at) / Fold change /veh CMKLR1 (11741424_a_at) / RFU LOC101060620 /// MAPK8IP1 (11723275_at) / Fold change /veh LOC101060620 /// MAPK8IP1 (11723275_at) / RFU SPTSSB (11747773_x_at) / Fold change /veh SPTSSB (11747773_x_at) / RFU PRSS12 (11739890_at) / Fold change /veh PRSS12 (11739890_at) / RFU BIN1 (11741810_x_at) / Fold change /veh BIN1 (11741810_x_at) / RFU WNT11 (11732464_a_at) / Fold change /veh WNT11 (11732464_a_at) / RFU C10orf10 (11716521_a_at) / Fold change /veh C10orf10 (11716521_a_at) / RFU C5orf56 (11738089_at) / Fold change /veh C5orf56 (11738089_at) / RFU CYB561 (11721691_x_at) / Fold change /veh CYB561 (11721691_x_at) / RFU ANKRD19P (11752326_a_at) / Fold change /veh ANKRD19P (11752326_a_at) / RFU OR2T12 /// OR2T33 /// OR2T8 (11738714_s_at) / Fold change /veh OR2T12 /// OR2T33 /// OR2T8 (11738714_s_at) / RFU VCAN (11748164_a_at) / Fold change /veh VCAN (11748164_a_at) / RFU JSRP1 (11732532_at) / Fold change /veh JSRP1 (11732532_at) / RFU KRTAP10-11 (11738290_x_at) / Fold change /veh KRTAP10-11 (11738290_x_at) / RFU MYO3A (11730013_a_at) / Fold change /veh MYO3A (11730013_a_at) / RFU EBF3 (11725865_a_at) / Fold change /veh EBF3 (11725865_a_at) / RFU CAMK2N1 (11719241_x_at) / Fold change /veh CAMK2N1 (11719241_x_at) / RFU C5orf56 (11738088_a_at) / Fold change /veh C5orf56 (11738088_a_at) / RFU OLFML3 (11715873_a_at) / Fold change /veh OLFML3 (11715873_a_at) / RFU LOC100653217 /// NTM (11731650_a_at) / Fold change /veh LOC100653217 /// NTM (11731650_a_at) / RFU MAPK11 (11762145_a_at) / Fold change /veh MAPK11 (11762145_a_at) / RFU FIZ1 (11724087_x_at) / Fold change /veh FIZ1 (11724087_x_at) / RFU OASL (11726364_x_at) / Fold change /veh OASL (11726364_x_at) / RFU SOX15 (11748057_x_at) / Fold change /veh SOX15 (11748057_x_at) / RFU CD79A (11719716_a_at) / Fold change /veh CD79A (11719716_a_at) / RFU HIST1H1D (11736915_at) / Fold change /veh HIST1H1D (11736915_at) / RFU CASKIN2 (11723855_a_at) / Fold change /veh CASKIN2 (11723855_a_at) / RFU LOC730098 (11760151_x_at) / Fold change /veh LOC730098 (11760151_x_at) / RFU OR4N2 (11742367_at) / Fold change /veh OR4N2 (11742367_at) / RFU PRRT2 (11749266_a_at) / Fold change /veh PRRT2 (11749266_a_at) / RFU SNX32 (11753110_a_at) / Fold change /veh SNX32 (11753110_a_at) / RFU CDHR5 (11726645_a_at) / Fold change /veh CDHR5 (11726645_a_at) / RFU RCAN1 (11760418_a_at) / Fold change /veh RCAN1 (11760418_a_at) / RFU FAM167A (11723789_a_at) / Fold change /veh FAM167A (11723789_a_at) / RFU FAM26E (11764081_at) / Fold change /veh FAM26E (11764081_at) / RFU ISYNA1 (11749810_s_at) / Fold change /veh ISYNA1 (11749810_s_at) / RFU ACY1 (11761880_at) / Fold change /veh ACY1 (11761880_at) / RFU 11764098_at / Fold change /veh 11764098_at / RFU SAMD14 (11745864_x_at) / Fold change /veh SAMD14 (11745864_x_at) / RFU NPB (11741838_a_at) / Fold change /veh NPB (11741838_a_at) / RFU TMPRSS6 (11731388_a_at) / Fold change /veh TMPRSS6 (11731388_a_at) / RFU KRTAP10-2 (11738614_at) / Fold change /veh KRTAP10-2 (11738614_at) / RFU ARHGAP8 /// PRR5-ARHGAP8 (11727945_x_at) / Fold change /veh ARHGAP8 /// PRR5-ARHGAP8 (11727945_x_at) / RFU KRTAP5-7 /// NADSYN1 (11734609_at) / Fold change /veh KRTAP5-7 /// NADSYN1 (11734609_at) / RFU RASL12 (11751679_a_at) / Fold change /veh RASL12 (11751679_a_at) / RFU CDKN2B (11736163_a_at) / Fold change /veh CDKN2B (11736163_a_at) / RFU PRF1 (11729649_at) / Fold change /veh PRF1 (11729649_at) / RFU, ZNF638 /// ZNF638-IT1 / Fold change vs veh, ZNF638 /// ZNF638-IT1 / RFU, PANK3 / Fold change vs veh, PANK3 / RFU, SH3YL1 / Fold change vs veh, SH3YL1 / RFU, ZEB2 / Fold change vs veh, ZEB2 / RFU, NRIP1 / Fold change vs veh, NRIP1 / RFU, PTTG1IP / Fold change vs veh, PTTG1IP / RFU, CAPN2 / Fold change vs veh, CAPN2 / RFU, MED14 / Fold change vs veh, MED14 / RFU, SNORA58 / Fold change vs veh, SNORA58 / RFU, C1orf63 / Fold change vs veh, C1orf63 / RFU, LRRFIP1 / Fold change vs veh, LRRFIP1 / RFU, NDUFAF7 / Fold change vs veh, NDUFAF7 / RFU, SLC12A2 / Fold change vs veh, SLC12A2 / RFU, IBTK / Fold change vs veh, IBTK / RFU, ESF1 / Fold change vs veh, ESF1 / Fold change vs veh, TMEM50B / RFU, TAOK1 / Fold change vs veh, TAOK1 / RFU, ACBD3 / Fold change vs veh, ACBD3 / RFU, TMA16 / Fold change vs veh, TMA16 / RFU, RWDD3 / Fold change vs veh, RWDD3 / RFU, BCAT1 / Fold change vs veh, BCAT1 / RFU, EDEM3 / Fold change vs veh, EDEM3 / RFU, TMEM33 / Fold change vs veh, TMEM33 / RFU, WDR75 / Fold change vs veh, WDR75 / RFU, AHCTF1 / Fold change vs veh, AHCTF1 / RFU, TFRC / Fold change vs veh, TFRC / RFU, ZDHHC17 / Fold change vs veh, ZDHHC17 / RFU, NOM1 / Fold change vs veh, NOM1 / RFU, ARL8B / Fold change vs veh, ARL8B / RFU, ZBTB11 / Fold change vs veh, ZBTB11 / RFU, TAMM41 / Fold change vs veh, TAMM41 / RFU, KIAA1704 /// LOC100996395 / Fold change vs veh, KIAA1704 /// LOC100996395 / RFU, ING1 / Fold change vs veh, ING1 / RFU, TRMT61B / Fold change vs veh, TRMT61B / RFU, FUBP3 / Fold change vs veh, FUBP3 / RFU, TP53 / Fold change vs veh, TP53 / RFU, TNKS2 / Fold change vs veh, TNKS2 / RFU, ZFP14 / Fold change vs veh, ZFP14 / RFU, ACTR2 / Fold change vs veh, ACTR2 / RFU, PPP3R1 / Fold change vs veh, PPP3R1 / RFU, PIK3R1 / Fold change vs veh, PIK3R1 / RFU, HNRNPA1 / Fold change vs veh, HNRNPA1 / RFU, RNF170 / Fold change vs veh, RNF170 / RFU, ZNF28 / Fold change vs veh, ZNF28 / RFU, RNGTT / Fold change vs veh, RNGTT / RFU, OGT / Fold change vs veh, OGT / RFU, BRD1 / Fold change vs veh, BRD1 / RFU, MARS / Fold change vs veh, MARS / RFU, ZNF655 / Fold change vs veh, ZNF655 / RFU, FAHD1 / Fold change vs veh, FAHD1 / RFU, BDP1 / Fold change vs veh, BDP1 / RFU, LRRCC1 / Fold change vs veh, LRRCC1 / RFU, ARID1A / Fold change vs veh, ARID1A / RFU, ZNF146 / Fold change vs veh, ZNF146 / RFU, ZNF330 / Fold change vs veh, ZNF330 / RFU, GPN3 / Fold change vs veh, GPN3 / RFU, C9orf123 / Fold change vs veh, C9orf123 / RFU, N4BP2L2 / Fold change vs veh, N4BP2L2 / RFU, ARFIP1 / Fold change vs veh, ARFIP1 / RFU, FAM179B / Fold change vs veh, FAM179B / RFU, BCL10 / Fold change vs veh, BCL10 / RFU, UHRF1BP1L / Fold change vs veh, UHRF1BP1L / RFU, BET1 / Fold change vs veh, BET1 / RFU, CNOT2 / Fold change vs veh, CNOT2 / RFU, ZNF268 / Fold change vs veh, ZNF268 / Fold change vs veh, ZNF507 / RFU, DGCR2 / Fold change vs veh, DGCR2 / RFU, WDSUB1 / Fold change vs veh, WDSUB1 / Fold change vs veh, HSP90B1 /// MIR3652 / RFU, ADSS / Fold change vs veh, ADSS / RFU, GK / Fold change vs veh, GK / RFU, ZNF148 / Fold change vs veh, ZNF148 / RFU, TAF9 / Fold change vs veh, TAF9 / RFU, SLC1A5 / Fold change vs veh, SLC1A5 / RFU, SLMO2 / Fold change vs veh, SLMO2 / RFU, ABCC4 / Fold change vs veh, ABCC4 / RFU, LOC101060439 /// RAP1B / Fold change vs veh, LOC101060439 /// RAP1B / RFU, RFX7 / Fold change vs veh, RFX7 / RFU, GTPBP10 / Fold change vs veh, GTPBP10 / RFU, CNEP1R1 / Fold change vs veh, CNEP1R1 / RFU, BIVM-ERCC5 /// ERCC5 / Fold change vs veh, BIVM-ERCC5 /// ERCC5 / RFU, ILF3 / Fold change vs veh, ILF3 / RFU 11762660_at / Fold change /veh 11762660_at / RFU VCAN (11757783_s_at) / Fold change /veh VCAN (11757783_s_at) / RFU DDX43 (11728927_at) / Fold change /veh DDX43 (11728927_at) / RFU KRT8 (11758188_x_at) / Fold change /veh KRT8 (11758188_x_at) / RFU NKD1 (11759106_at) / Fold change /veh NKD1 (11759106_at) / RFU SRD5A1 (11742802_a_at) / Fold change /veh SRD5A1 (11742802_a_at) / RFU TPSAB1 /// TPSB2 (11721975_s_at) / Fold change /veh TPSAB1 /// TPSB2 (11721975_s_at) / RFU GSTM3 (11746129_a_at) / Fold change /veh GSTM3 (11746129_a_at) / RFU IL23R (11737362_x_at) / Fold change /veh IL23R (11737362_x_at) / RFU TMEM51 (11727254_a_at) / Fold change /veh TMEM51 (11727254_a_at) / RFU PIWIL2 (11732686_x_at) / Fold change /veh PIWIL2 (11732686_x_at) / RFU ORM1 (11744905_x_at) / Fold change /veh ORM1 (11744905_x_at) / RFU CCDC152 (11743942_at) / Fold change /veh CCDC152 (11743942_at) / RFU ECM1 (11717891_a_at) / Fold change /veh ECM1 (11717891_a_at) / RFU IL23R (11748794_a_at) / Fold change /veh IL23R (11748794_a_at) / RFU TNFAIP8L3 (11732012_x_at) / Fold change /veh TNFAIP8L3 (11732012_x_at) / RFU MBOAT4 (11741988_at) / Fold change /veh MBOAT4 (11741988_at) / RFU 11764193_at / Fold change /veh 11764193_at / RFU TMEM53 (11763286_at) / Fold change /veh TMEM53 (11763286_at) / RFU MAGEB2 (11727129_at) / Fold change /veh MAGEB2 (11727129_at) / RFU TMEM200A (11744735_a_at) / Fold change /veh TMEM200A (11744735_a_at) / RFU CCDC152 (11751479_a_at) / Fold change /veh CCDC152 (11751479_a_at) / RFU FAM211A (11726209_a_at) / Fold change /veh FAM211A (11726209_a_at) / RFU RGS16 (11746705_a_at) / Fold change /veh RGS16 (11746705_a_at) / RFU VCAN (11755009_s_at) / Fold change /veh VCAN (11755009_s_at) / RFU RHOB (11743442_s_at) / Fold change /veh RHOB (11743442_s_at) / RFU RGS16 (11720943_a_at) / Fold change /veh RGS16 (11720943_a_at) / RFU RGS16 (11720944_at) / Fold change /veh RGS16 (11720944_at) / RFU, VPS4B / Fold change vs veh, VPS4B / RFU, CREB1 / Fold change vs veh, CREB1 / RFU, DNAJC13 / Fold change vs veh, DNAJC13 / RFU, GNAQ / Fold change vs veh, GNAQ / RFU, CDK5R1 / Fold change vs veh, CDK5R1 / RFU, ZRANB3 / Fold change vs veh, ZRANB3 / RFU, CUL4A / Fold change vs veh, CUL4A / RFU, CCNY / Fold change vs veh, CCNY / RFU, UFL1 / Fold change vs veh, UFL1 / RFU, COG3 / Fold change vs veh, COG3 / RFU, DIAPH2 / Fold change vs veh, DIAPH2 / RFU, SKA2 / Fold change vs veh, SKA2 / RFU, AFF3 / Fold change vs veh, AFF3 / RFU, LMF1 / Fold change vs veh, LMF1 / RFU, IPO11 / Fold change vs veh, IPO11 / RFU, DFFB / Fold change vs veh, DFFB / RFU, FOXP1 / Fold change vs veh, FOXP1 / RFU, CARD8 / Fold change vs veh, CARD8 / RFU, STRN3 / Fold change vs veh, STRN3 / RFU, ADK / Fold change vs veh, ADK / RFU, RASSF2 / Fold change vs veh, RASSF2 / RFU, WIPF1 / Fold change vs veh, WIPF1 / RFU, LARP1B / Fold change vs veh, LARP1B / RFU, RASA1 / Fold change vs veh, RASA1 / RFU, RB1 / Fold change vs veh, RB1 / RFU, PPFIA1 / Fold change vs veh, PPFIA1 / RFU, MAT2A / Fold change vs veh, MAT2A / RFU, CCT5 / Fold change vs veh, CCT5 / RFU, WDR92 / Fold change vs veh, WDR92 / RFU, CUX1 / Fold change vs veh, CUX1 / RFU, TTC7A / Fold change vs veh, TTC7A / RFU, TMEM135 / Fold change vs veh, TMEM135 / RFU, DEPTOR / Fold change vs veh, DEPTOR / RFU, CPM / Fold change vs veh, CPM / RFU, DNAJB6 / Fold change vs veh, DNAJB6 / RFU, CACNA2D3 / Fold change vs veh, CACNA2D3 / RFU, DTX4 / Fold change vs veh, DTX4 / RFU, TFCP2 / Fold change vs veh, TFCP2 / RFU, GMCL1 /// GMCL1P1 / Fold change vs veh, GMCL1 /// GMCL1P1 / RFU, AEBP2 / Fold change vs veh, AEBP2 / RFU, SNHG1 /// SNORD22 /// SNORD25 /// SNORD26 /// SNORD27 /// SNORD28 /// SNORD29 /// SNORD31 / Fold change vs veh, SNHG1 /// SNORD22 /// SNORD25 /// SNORD26 /// SNORD27 /// SNORD28 /// SNORD29 /// SNORD31 / Fold change (Aza/veh), C12orf56 (ProbeSet 11735607_a_at) / Fold change (ACY-1035/veh), C12orf56 (ProbeSet 11735607_a_at) / Fold change (Aza/veh), FGFR1OP (ProbeSet 11751329_s_at) / Fold change (ACY-1035/veh), FGFR1OP (ProbeSet 11751329_s_at) / Fold change (Aza/veh), VPS36 (ProbeSet 11739960_a_at) / Fold change (ACY-1035/veh), VPS36 (ProbeSet 11739960_a_at) / RFU SYPL1 (11715823_x_at) / Fold change /veh SYPL1 (11715823_x_at) / RFU IGFBP7 (11715501_s_at) / Fold change /veh IGFBP7 (11715501_s_at) / RFU REEP3 (11722064_at) / Fold change /veh REEP3 (11722064_at) / RFU IGLL1 (11728026_x_at) / Fold change /veh IGLL1 (11728026_x_at): dose or concentration left out as unconfirmed
Details: ProbeSet 11734937_a_at; LIST B

Nc1ccc(-c2cccs2)cc1NC(=O)c1ccc2c(c1)cc(C1CC1)n2CCN1CCOCC1 [ACY-1035]
RFU, CNOT2: 798.97 RFU
